Values after ≈ are worked out from the molar mass of the structure shown. Read-outs that look alike come from different tables or passages of the source.
What was measured:
[1] = Nephrotoxicity test in rabbits; conditions: comparative test
[2] = pH of aqueous solution of the salt; assay type: physicochemical
B. anthracis = experiment: microbe, parasite or virus in culture; assay type: cell-based; conditions: Bacillus anthracis, MHA; Example 10
Pr. rettgeri = experiment: MIC by Steers' agar dilution method; conditions: Providencia rettgeri, MHA; Example 10
Shig. sonnei = experiment: MIC by Steers' agar dilution method; assay type: cell-based; conditions: Shigella sonnei, MHA; Example 10
Kl. pneumoniae = experiment: MIC by Steers' agar dilution method; assay type: cell-based; conditions: Klebsiella pneumoniae, MHA, Example 10
Serr. marcescens = experiment: MIC by Steers' agar dilution method; conditions: Serratia marcescens, MHA; Example 10
Shig. flexneri = experiment: MIC by Steers' agar dilution method; assay type: cell-based; conditions: Shigella flexneri, MHA; Example 10
Pr. vulgaris = experiment: MIC by Steers' agar dilution method; conditions: Proteus vulgaris, MHA, Example 10
Enterob. cloacae = experiment: MIC by Steers' agar dilution method; conditions: MHA; Example 10
E. coli = experiment: MIC by Steers' agar dilution method; assay type: cell-based; conditions: Escherichia coli, MHA, Example 10
Ps. aeruginosa = experiment: MIC by Steers' agar dilution method; conditions: Pseudomonas aeruginosa, MHA, Example 10
Sal. enteritidis = experiment: MIC by Steers' agar dilution method; conditions: Salmonella enterica, MHA, Example 10
Pr. mirabilis = experiment: MIC by Steers' agar dilution method; conditions: Proteus mirabilis, MHA, Example 10
Pr. morganii = experiment: MIC by Steers' agar dilution method; conditions: Morganella morganii, MHA, Example 10
Sal. typhosa = experiment: MIC by Steers' agar dilution method; assay type: cell-based; conditions: MHA; Example 10
S. aureus = experiment: MIC by Steers' agar dilution method; assay type: cell-based; conditions: Staphylococcus aureus, MHA, Example 10
Shig. dysenteriae = experiment: MIC by Steers' agar dilution method; conditions: Shigella dysenteriae, MHA; Example 10
St. faecalis = experiment: MIC by Steers' agar dilution method; conditions: Enterococcus faecalis, MHA; Example 10

SMILES: O=C(Cc1cccs1)N[C@@H]1C(=O)N2C(C(=O)[O-])=C(C[n+]3ccccc3)CS[C@H]12 [cephaloridine, reference compound]
- Nephrotoxicity [1]: severe nephrotoxicity

SMILES: O=C(O)Cn1nc2ccc(SCC3=C(C(=O)[O-])N4C(=O)C(NC(=O)[C@H](O)c5ccccc5)[C@H]4SC3)nn2c1=O.[Na+] (stereo partly drawn) [Sodium Salt of BB-S488, sodium 7-(D-mandelamido)-3-(2-carboxymethyl-2,3-dihydro-s-triazolo[4,3-b]pyridazin-3-on-6-ylthiomethyl)-3-cephem-4-carboxylate]
- pH of the aqueous solution ([2]; 10% aqueous solution): 3.6

SMILES: O=C(O)Cn1nc2ccc(SCC3=C(C(=O)O)N4C(=O)C(NC(=O)[C@H](O)c5ccccc5)C4SC3)nn2c1=O (stereo partly drawn) [Example 6, disodium 7-(D-mandelamido)-3-(2-carboxymethyl-2,3-dihydro-s-triazolo[4,3-b]pyridazin-3-on-6-ylthiomethyl)-3-cephem-4-carboxylylate]
- pH of the aqueous solution ([2]; 5% aqueous solution): 5.4

SMILES: O=C(O)CCn1nc2ccc(SCC3=C(C(=O)O)N4C(=O)C(NC(=O)[C@H](O)c5ccccc5)[C@H]4SC3)nn2c1=O (single isomer, unassigned) [BB-S 527, 7-[D(-)-Mandelamido]-3-[2-(2-carboxyethyl)-2,3-dihydro-s-triazolo-[4,3-b]pyridazin-3-on-6-ylthiomethyl]-3-cephem-4-carboxylic acid]
- MIC (B. anthracis): 0.4 µg/mL (≈ 0.682 µM)
- MIC (Pr. rettgeri): 0.2 µg/mL (≈ 0.341 µM)
- MIC (Shig. sonnei): 0.1 µg/mL (≈ 0.17 µM)
- MIC (Kl. pneumoniae; strain not named (1st of 4)): 6.3 µg/mL (≈ 10.7 µM)
- MIC (Kl. pneumoniae; strain not named (2nd of 4)): 0.2 µg/mL (≈ 0.341 µM)
- MIC (Kl. pneumoniae; strain not named (3rd of 4)): 0.8 µg/mL (≈ 1.36 µM)
- MIC (Kl. pneumoniae; strain not named (4th of 4)): 0.4 µg/mL (≈ 0.682 µM)
- MIC (Serr. marcescens): > 100 µg/mL
- MIC (Shig. flexneri): 50 µg/mL (≈ 85.2 µM)
- MIC (Pr. vulgaris; strain not given (1st of 2)): 0.1 µg/mL (≈ 0.17 µM)
- MIC (Pr. vulgaris; strain not named (2nd of 2)): 12.5 µg/mL (≈ 21.3 µM)
- MIC (Enterob. cloacae): 6.3 µg/mL (≈ 10.7 µM)
- MIC (E. coli; ATCC8739, ATCC 8739): 12.5 µg/mL (≈ 21.3 µM)
- MIC (E. coli; BX-1373, read-out: MIC): 6.3 µg/mL (≈ 10.7 µM)
- MIC (E. coli; Juhl, read-out: MIC): 0.4 µg/mL (≈ 0.682 µM)
- MIC (E. coli; NIHJ, read-out: MIC): 0.4 µg/mL (≈ 0.682 µM)
- MIC (E. coli; strain not named (1st of 3), read-out: MIC): 0.1 µg/mL (≈ 0.17 µM)
- MIC (E. coli; strain not named (2nd of 3), read-out: MIC): 0.1 µg/mL (≈ 0.17 µM)
- MIC (E. coli; strain not named (3rd of 3), read-out: MIC): 6.3 µg/mL (≈ 10.7 µM)
- MIC (Ps. aeruginosa; strain not given (1st of 2)): > 100 µg/mL
- MIC (Ps. aeruginosa; strain not named (2nd of 2)): > 100 µg/mL
- MIC (Sal. enteritidis): 0.05 µg/mL (≈ 0.0852 µM)
- MIC (Pr. mirabilis; strain not given (1st of 2)): 0.2 µg/mL (≈ 0.341 µM)
- MIC (Pr. mirabilis; strain not named (2nd of 2)): 0.1 µg/mL (≈ 0.17 µM)
- MIC (Pr. morganii; strain not given (1st of 2)): > 100 µg/mL
- MIC (Pr. morganii; strain not named (2nd of 2)): 0.4 µg/mL (≈ 0.682 µM)
- MIC (Sal. typhosa): 0.1 µg/mL (≈ 0.17 µM)
- MIC (S. aureus; BX-1633): 3.1 µg/mL (≈ 5.28 µM)
- MIC (S. aureus; Smith): 1.6 µg/mL (≈ 2.73 µM)
- MIC (S. aureus; strain not named): 0.4 µg/mL (≈ 0.682 µM)
- MIC (Shig. dysenteriae): 0.025 µg/mL (≈ 0.0426 µM)
- MIC (St. faecalis): > 100 µg/mL

From patent US4112228A, “7-(D-α-Hydroxy-2-arylacetamido)-3-(2-carboxyalkyl-2,3-dihydro-s-tri azolo-[4,3-b]pyridazin-3-on-6-ylthiomethyl)-3-cephem-4-carboxylic acids and derivatives” (priority 1977, dated 1978)
